Laboratory results taken from patent US9453051B2, “Cyclosporin derivatives” (priority 2011, dated 2016).
pIC50: −log10 of the molar value.

Key:
[1] = test system: NFAT; experiment: Cellular NFAT-reporter-gene assay (GloResponse NFAT-RE-luc2P HEK293); format: cell-based; details: Homo sapiens, HEK293, 16 h, read-out: NFAT-reporter-gene assay IC50
Source text: An antigen specific stimulation of the T-cell receptor causes the activation of transcription factors such as e.g. NFAT (nuclear factor of activated T cells). NFAT-activation is essential for the expression of interleukine-2 and therefore, for the proliferation of T-cells as part of the immune response. A stable NFAT-reporter-gene cell line enables the analysis of modulators of the NFAT-pathways and thus, the evaluation of the immunosuppressive effects of compounds.
The stably transfected reporter-gene cell line GloResponse NFAT-RE-luc2P HEK293 (promega Corp. USA) was cultivated in DMEM (10% FCS; 2 mM Glutamin; 200 μg/ml Hygromycin) and seeded on 96-well plates (200.000 cells/well). The compounds to be tested were either added to the cells in a 2-point-determination (5 μM and 10 μM) or an ICH-determination (concentration series 4.1 nM-1 μM). […] Immediately thereafter the cells were stimulated with 5 nM PMA and 2 μM ionomycin and incubated over 16 h (37° C.; cell incubator). This double stimulation simulates a T-cell receptor stimulation and causes a NFAT activation with subsequently expression of the luciferase-reporter-gene. The amount of luciferase was quantitatively determined after 16 h by measurement of the bioluminescence by Bright-Glo Luciferase-Assay-System (Promega Corp., USA). The averaged luciferase values of the vehicle treated (1% DMSO) and with PMA/ionomycin stimulated cells were used as positive control and reference value.

[2] = in vitro; details: human, Caco-2, pH 7.4
[3] = target: recombinant human wild type Cyp18 (Cyp18 wt) (Homo sapiens, UniProt P62937); experiment: biochemical
Description: The determination was performed on a UV/Vis spectrometer at 10° C. cuvette temperature, whereby the device is operated at 390 nm in kinetic-mode (measurement buffer: 35 mM HEPES/NaOH pH 7.8 (AppliChem A1069)). 0.58 nM recombinant human wild type Cyp18 (Cyp18 wt), 2.33 nM bovine serum albumin (BSA) and 1 mg/ml chymotrypsin (Merck) solved in 35 mM HEPES/NaOH pH 7.8 as well as different concentration of each test substance, where appropriate, were in the cuvette. The reaction was started with a stock solution of Suc-Ala-Ala-Pro-Phe-4-nitroanilide (Bachem, 10 mg/ml DMSO) as substrate so that a final substrate concentration of 32 μM resulted. The extinction-time-curves were evaluated after expiry of the fast phase of the reaction i.e. after approximately 60 seconds according to a rate equation of a first-order reaction.

[4] = target: calcineurin (Homo sapiens, UniProt P62937+P63098+Q08209); experiment: Inhibition of the phosphatase activity of calcineurin (scintillation-proximity-assay, in presence of Cyp18);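 note: calcineurin dephosphorylation of a ³³P-labelled RII phosphopeptide, captured on streptavidin-coated wells and read by scintillation counting, with uninhibited enzyme activity taken as 100%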
Description: The measurement was carried out by incubation of 10 μMol of the biotinylated phosphopeptide [sequence]pSer-Val-Ala-Ala-Glu (MW=2192.0) (RH-peptide) marked with ^33P in a sample buffer (40 mM Tris-HCl, pH 7.5, 100 mM NaCl, 6 mM MgCl2, 0.5 mM dithiothreitol, 1 mM. CaCl2, 0.1 mg/ml bovine serum albumin) in presence of 50 nM calmodulin and 1.32 nM calcineurin at 30° C. for 20 min in a 96 well micro titer plate (Costar, Bodenheim, Germany). The total volume of the assay/well was 100 μl. After this reaction time a 90 μl aliquot of the reaction mixture was transferred into a scintillation cavity coated with streptavidin and incubated for 20 min at 22° C. After a washing step the RII phosphopeptide-associated ^33P radioactivity was measured in a MicroBeta Top Counter (Wallac) and the enzyme activity was indicated as average value of three measurements±S.D. The uninhibited dephosphorylation activity has been set on 100%.

[5] = Determination of cell permeability in PAMPA cell membranes (Parallel Artificial Membrane Permeability Assay); format: in vitro ADME; details: 500 μM, Hepes buffer pH 7.4, 16 hours, room temperature
Description: After an incubation of 16 hours at room temperature in a liquid chamber the optical density of the solution after filtration has been measured in a range of 250 to 500 nm in steps of 10 nm each. The percentage “Flux” has been calculated from the integral of the graph between 250 and 500 nm and standardized on the optical density determined in the parallel reaction without artificial membrane.

[6] = test system: Jurkat cells; experiment: Determination of cell permeability in Jurkat cells (displacement of fluorescent CsA derivative, FACS); format: cell-based; details: FIG. 1; in comparison to CsA
Description: Jurkat cells of the cell culture have been harvested and centrifuged. The medium has been discarded and the cells were washed once with RPM′ (without phenol red, 10% FCS, Hepes, gentamicin). The cells were re-suspended in a medium adjusted to a cell concentration of 1.0×10^5-3.0×10^5 cells/ml and subsequently incubated with a fluorescent CsA derivative (0.5 μM-2.0 μM) at 37° C., 5-10% CO2 and 100% humidity. The cells were then centrifuged, the medium discarded and the cell pellet was washed once with medium and the cells were resuspended in a new medium. Subsequently, the cells were incubated for a half hour to 4 hours with the corresponding concentration (0.01 μM to 100 μM) of the test compound to be analyzed and then centrifuged again. The medium was discarded; it was once washed with 1 ml PBS and suspended in 500 μl PBS. The analysis was carried out using FACS-measurement by quantification of the replaced fluorescent CsA-derivative. The reference (without inhibitor) was thereby set 100%.

[7] = test system: ovalbumin sensitized mice (BALB/c-strain); experiment: Asthma evaluations (ovalbumin sensitized mice); format: in vivo; details: 200 μg i.p. at days 7, 9 and 11
Description: By application of ovalbumin together with aluminium hydroxide an immune response to ovalbumin is provoked. The immune response may be traced using the immigrated T-helper cell population (CD4+) and the immigrated eosinophilic granulocytes. Female mice (BALB/c-strain) were sensitized by intraperitoneal (i.p.) application of 50 μg ovalbumin solved in phosphate buffer (PBS) ((OVA) plus 100 μl aluminium hydroxide) with a total volume of 200 μl per mouse on day 0. 100 μg OVA in PBS (50 μl total volume) was intranasal administered to the ovalbumin sensitized mice under mild anesthesia (isoflurane) at days 7-10. These animals were divided into groups which obtained in addition either 200 μg test compound in PBS (i.p.), only PBS (diluent) or no further additive (−) at days 7, 9 and 11. At day 12 all animals were sacrificed by CO2 exposition and cells of the bronchial tract were obtained by bronchial lavage (BAL) with threefold washing with 1 ml of cold PBS each using a cannula introduced into the trachea. The cells obtained by BAL were then stained twice (a) with Cy-chrome conjugated anti-mouse CD4 antibodies and (b) with FITC conjugated anti-mouse CD62L antibodies. Subsequently, the cells were analyzed by FACS. Effector/memory CD4^+ T-cells were differentiated as CD4^+/CD62L^− lymphocytes and eosinophilic cells using their stray light characteristics (FSC/CCS).

recombinant human wild type Cyp18 (Cyp18 wt), sequence (P62937 whole entry): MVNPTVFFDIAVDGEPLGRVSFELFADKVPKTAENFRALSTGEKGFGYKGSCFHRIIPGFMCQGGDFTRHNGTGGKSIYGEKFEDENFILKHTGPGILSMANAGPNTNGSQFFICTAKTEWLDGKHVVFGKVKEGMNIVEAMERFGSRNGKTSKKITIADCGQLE

## CC[C@@H]1NC(=O)[C@H]([C@H](O)[C@H](C)Cc2nc3cc(C(N)=O)ccc3[nH]2)N(C)C(=O)[C@H](C(C)C)N(C)C(=O)[C@H](CC(C)C)N(C)C(=O)[C@H](CC(C)C)N(C)C(=O)[C@@H](C)NC(=O)[C@H](C)NC(=O)[C@H](CC(C)C)N(C)C(=O)[C@H](C(C)C)NC(=O)[C@H](CC(C)C)N(C)C(=O)CN(C)C1=O [Compound 23]
[1]
  pIC50: < 5.00
[2]
  Papp A→B at 2 h, 5 μM: 0.3 ×10⁻⁶ cm/s
  Papp B→A at 2 h, 5 μM: 0.6 ×10⁻⁶ cm/s
[3]
  pIC50: 8.42
[4]
  pIC50: < 5.00

## CC[C@@H]1NC(=O)[C@H]([C@H](O)[C@H](C)Cc2nc3cc(C(=O)O)c(C(=O)O)cc3[nH]2)N(C)C(=O)[C@H](C(C)C)N(C)C(=O)[C@H](CC(C)C)N(C)C(=O)[C@H](CC(C)C)N(C)C(=O)[C@@H](C)NC(=O)[C@H](C)NC(=O)[C@H](CC(C)C)N(C)C(=O)[C@H](C(C)C)NC(=O)[C@H](CC(C)C)N(C)C(=O)CN(C)C1=O [Compound 31]
[1]
  pIC50: < 5.00
[5]
  Cell permeability in PAMPA-cell membranes: 0.2 % flux
[2]
  Papp A→B at 2 h, 5 μM: < 0.15 ×10⁻⁶ cm/s
  Papp B→A at 2 h, 5 μM: < 0.18 ×10⁻⁶ cm/s
[3]
  pIC50: 7.40

## CC[C@@H]1NC(=O)[C@H]([C@H](O)[C@H](C)Cc2nc3cccc(C(=O)O)c3[nH]2)N(C)C(=O)[C@H](C(C)C)N(C)C(=O)[C@H](CC(C)C)N(C)C(=O)[C@H](CC(C)C)N(C)C(=O)[C@@H](C)NC(=O)[C@H](C)NC(=O)[C@H](CC(C)C)N(C)C(=O)[C@H](C(C)C)NC(=O)[C@H](CC(C)C)N(C)C(=O)CN(C)C1=O [Compound 28]
[1]
  pIC50: < 5.00
[5]
  Cell permeability in PAMPA-cell membranes: 3.3 % flux
[2]
  Papp A→B at 2 h, 5 μM: < 0.4 ×10⁻⁶ cm/s
  Papp B→A at 2 h, 5 μM: 0.3 ×10⁻⁶ cm/s

## CC[C@@H]1NC(=O)[C@H]([C@H](O)[C@H](C)Cc2nc3cc(-c4nnn[nH]4)ccc3[nH]2)N(C)C(=O)[C@H](C(C)C)N(C)C(=O)[C@H](CC(C)C)N(C)C(=O)[C@H](CC(C)C)N(C)C(=O)[C@@H](C)NC(=O)[C@H](C)NC(=O)[C@H](CC(C)C)N(C)C(=O)[C@H](C(C)C)NC(=O)[C@H](CC(C)C)N(C)C(=O)CN(C)C1=O [Compound 33]
[1]
  pIC50: < 5.00
[5]
  Cell permeability in PAMPA-cell membranes: 0.25 % flux
[2]
  Papp A→B at 2 h, 5 μM: < 0.15 ×10⁻⁶ cm/s
  Papp B→A at 2 h, 5 μM: < 0.15 ×10⁻⁶ cm/s
[4]
  pIC50: < 5.00

## CC[C@@H]1NC(=O)[C@H]([C@H](O)[C@H](C)Cc2nc3cc(C(=O)O)ccc3n2C)N(C)C(=O)[C@H](C(C)C)N(C)C(=O)[C@H](CC(C)C)N(C)C(=O)[C@H](CC(C)C)N(C)C(=O)[C@@H](C)NC(=O)[C@H](C)NC(=O)[C@H](CC(C)C)N(C)C(=O)[C@H](C(C)C)NC(=O)[C@H](CC(C)C)N(C)C(=O)CN(C)C1=O [Compound 36]
[1]
  pIC50: < 5.00
[5]
  Cell permeability in PAMPA-cell membranes: 0.7 % flux
[2]
  Papp A→B at 2 h, 5 μM: 0.3 ×10⁻⁶ cm/s
[4]
  pIC50: < 5.00

## CC[C@@H]1NC(=O)[C@H]([C@H](O)[C@H](C)Cc2nc3cc(S(N)(=O)=O)ccc3[nH]2)N(C)C(=O)[C@H](C(C)C)N(C)C(=O)[C@H](CC(C)C)N(C)C(=O)[C@H](CC(C)C)N(C)C(=O)[C@@H](C)NC(=O)[C@H](C)NC(=O)[C@H](CC(C)C)N(C)C(=O)[C@H](C(C)C)NC(=O)[C@H](CC(C)C)N(C)C(=O)CN(C)C1=O [Compound 34]
[1]
  pIC50: < 5.00
[5]
  Cell permeability in PAMPA-cell membranes: 19.9 % flux
[2]
  Papp A→B at 2 h, 5 μM: < 0.6 ×10⁻⁶ cm/s
  Papp B→A at 2 h, 5 μM: 0.87 ×10⁻⁶ cm/s
[3]
  pIC50: 7.79
[4]
  pIC50: 5.19

## CC[C@@H]1NC(=O)[C@H]([C@H](O)[C@H](C)Cc2nc3cc(S(=O)(=O)O)ccc3[nH]2)N(C)C(=O)[C@H](C(C)C)N(C)C(=O)[C@H](CC(C)C)N(C)C(=O)[C@H](CC(C)C)N(C)C(=O)[C@@H](C)NC(=O)[C@H](C)NC(=O)[C@H](CC(C)C)N(C)C(=O)[C@H](C(C)C)NC(=O)[C@H](CC(C)C)N(C)C(=O)CN(C)C1=O [Compound 22]
[1]
  pIC50: < 5.00
[5]
  Cell permeability in PAMPA-cell membranes: 4.1 % flux
[2]
  Papp A→B at 2 h, 5 μM: 0.9 ×10⁻⁶ cm/s
[3]
  pIC50: 8.06
[4]
  pIC50: < 5.00

## CC[C@@H]1NC(=O)[C@H]([C@H](O)[C@H](C)Cc2nc3cc(NC(=N)N)ccc3[nH]2)N(C)C(=O)[C@H](C(C)C)N(C)C(=O)[C@H](CC(C)C)N(C)C(=O)[C@H](CC(C)C)N(C)C(=O)[C@@H](C)NC(=O)[C@H](C)NC(=O)[C@H](CC(C)C)N(C)C(=O)[C@H](C(C)C)NC(=O)[C@H](CC(C)C)N(C)C(=O)CN(C)C1=O [Compound 46]
[1]
  pIC50: < 5.00
[5]
  Cell permeability in PAMPA-cell membranes: 13.5 % flux
[2]
  Papp A→B at 2 h, 5 μM: 0.4 ×10⁻⁶ cm/s
[3]
  pIC50: 7.88
[4]
  pIC50: 5.18

## CC[C@@H]1NC(=O)[C@H]([C@H](O)[C@H](C)Cc2nc3ccc(C(=O)O)cc3[nH]2)N(C)C(=O)[C@H](C(C)C)N(C)C(=O)[C@H](CC(C)C)N(C)C(=O)[C@H](CC(C)C)N(C)C(=O)[C@@H](C)NC(=O)[C@H](C)NC(=O)[C@H](CC(C)C)N(C)C(=O)[C@H](C(C)C)NC(=O)[C@H](CC(C)C)N(C)C(=O)CN(C)C1=O [Compound 5]
[1]
  pIC50: < 5.00
[6]
  Cell permeability in Jurkat cells: not cell permeable
[5]
  Cell permeability in PAMPA-cell membranes: 1.7 % flux
[7]; FIG. 3
  Number of eosinophilic granulocytes (eosinophils) in bronchial lavage: reduced very significantly
[7]; FIG. 4
  Number of eosinophilic granulocytes (eosinophils) in lung tissue: reduced very significantly
[7]; FIG. 5
  Number of CD4 positive T-cells in bronchial lavage (BAL): reduced very significantly
[7]; FIG. 6
  Number of CD4 positive T-cells in the lung tissue: reduced very significantly
[2]
  Papp A→B at 2 h, 5 μM: 0.17 ×10⁻⁶ cm/s
  Papp B→A at 2 h, 5 μM: 0.13 ×10⁻⁶ cm/s
[4]
  pIC50: < 5.00

## CC[C@@H]1NC(=O)[C@H]([C@H](O)[C@H](C)Cc2nc3ccc(C(=O)O)cc3n2C)N(C)C(=O)[C@H](C(C)C)N(C)C(=O)[C@H](CC(C)C)N(C)C(=O)[C@H](CC(C)C)N(C)C(=O)[C@@H](C)NC(=O)[C@H](C)NC(=O)[C@H](CC(C)C)N(C)C(=O)[C@H](C(C)C)NC(=O)[C@H](CC(C)C)N(C)C(=O)CN(C)C1=O [Compound 37]
[1]
  pIC50: < 5.00
[5]
  Cell permeability in PAMPA-cell membranes: 2 % flux
[2]
  Papp A→B at 2 h, 5 μM: 0.1 ×10⁻⁶ cm/s

## CC[C@@H]1NC(=O)[C@H]([C@H](O)[C@H](C)Cc2nc3cc(C(=N)N)ccc3[nH]2)N(C)C(=O)[C@H](C(C)C)N(C)C(=O)[C@H](CC(C)C)N(C)C(=O)[C@H](CC(C)C)N(C)C(=O)[C@@H](C)NC(=O)[C@H](C)NC(=O)[C@H](CC(C)C)N(C)C(=O)[C@H](C(C)C)NC(=O)[C@H](CC(C)C)N(C)C(=O)CN(C)C1=O [Compound 35]
[1]
  pIC50: < 5.00
[5]
  Cell permeability in PAMPA-cell membranes: 4 % flux
[2]
  Papp A→B at 2 h, 5 μM: < 0.35 ×10⁻⁶ cm/s
  Papp B→A at 2 h, 5 μM: < 0.46 ×10⁻⁶ cm/s
[3]
  pIC50: 7.92
[4]
  pIC50: 5.32
